Laboratory results reported in patent publication US8075777B2, “Process for the separation of diastereomers” (E. I. du Pont de Nemours and Company, priority 2007, dated 2011).

Experiments:
[1] = Single stage liquid-liquid extraction of HFC-4310mee with [bmim][BF4] in separatory funnel, GC analysis of upper phase; assay type: physicochemical; conditions: 7.2 g HFC-4310mee feed (88.8/11.2 vol % threo/erythro) mixed with 15.1 g [bmim][BF4]
Method: To evaluate this characterization, a sample of HFC-4310mee was analyzed by gas chromatography and found to contain 88.8 vol % HFC-4310mee-threo and 11.2 vol % HFC-4310mee-erythro diastereomers. A 7.2 gram sample of HFC-4310mee (i.e., the feed) was mixed with 15.1 grams of [bmim][BF4] (i.e., the extractant) in a separator funnel and vigorously mixed and then allowed to separate into two phases. […] [BF4]. The lower phase was separated from the top phase by opening the stopcock valve on the bottom of the separatory funnel and decanting off the lower phase. The remaining upper phase was analyzed by gas chromatography. The upper phase contained 91.8 vol % HFC-4310mee-threo and 8.2 vol % HFC-4310mee-erythro, which is in accordance with the ternary diagrams.

[2] = NRTL activity model correlation of LLE data (binary interaction parameters, equation 5); assay type: physicochemical; design: key to τ12^(0) / τ21^(0): constant term in τij = τij(0) + τij(1)/T + τij(2)T (NRTL, α=0.2); conditions: non-deuterated, α=0.2
From the text: Observed LLE data have been correlated with the NRTL (non-random two liquid) solution model as described in Shiflett, M. B. and Yokozeki, A. (Vapor-liquid-liquid equilibria of pentafluoroethane and ionic liquid [bmim][PF6] mixtures studied with the volumetric method, J. Phys. Chem. B (2006) 110:14436-14443); and in Shiflett, M. B. and Yokozeki, A. (Vapor-liquid-liquid equilibria of hydrofluorocarbons+1-butyl-3-methylimidazolium hexafluorophosphate, J. Chem. & Eng. Data (2006) 51:1931-1939).
The binary activity coefficients of the NRTL are given by:
[formula] where G12≡exp(−ατ12), and G21≡exp(−ατ21) (3)
α=0.2 (assumed to be a constant of 0.2 in this work).
xi=mole fraction of the i-th species.
The temperature-dependent binary interaction parameter (τij) is modeled here by a three term empirical equation: τ12=τ12^(0)+τ12^(1)/T+τ12^(2)T, and τ21=τ21^(0)+τ21^(1)/T+τ21^(2)T (5)
The binary LLE (L1 for liquid 1 and L2 for liquid 2) are mathematically described by the following equilibrium condition: γi^L1xi^L1=γi^L2xi^L2 (6) Thus, the two adjustable parameters τ12 and τ21 at a given T can be determined from one set of LLE experimental (volumetric method) data, using eq 6 (two nonlinearly coupled equations). We obtained several sets of such LLE data and can obtain τ12 and τ21 at respective T. Then, the empirical parameters in eq 5 were determined and are shown in Example 5, Table 5, where results for only the non-deuterated isomers with ionic liquids are given, since results for the deuterated isomer cases are similar to those in Table 5.

[3] = assay type: physicochemical
From the text: The separation of the erythro or threo diastereomer from a mixture thereof in HFC-4310mee involves one of the diastereomers being soluble to a greater extent in at least one ionic liquid than the other diastereomer is. In order to study this type of behavior, liquid-liquid equilibrium (LLE) and cloud point measurements on samples of HFC-4310mee were made as described in Examples 1 to 4. […]
Initially, the samples were mixed at room temperature (293.2 K) by vigorously shaking the sample containers. […] The water bath was stirred with an agitator (Arrow Engineering Co., Inc. model 1750, Hillside, N.J.) and the temperature measured with a thermocouple (Fluke Corporation, model 5211 thermometer, Everett, Wash.). The Fluke thermometer was calibrated using a standard platinum resistance thermometer (SPRT model 5699, Hart Scientific, American Fork, Utah, range 73 to 933 K) and readout (Blackstack model 1560 with SPRT module 2560). […]
The water bath temperature was initially set at about 283 K, and the sample containers were rocked back and forth. […] The mixing and measurement procedure was repeated each day and the heights plotted as a function of time until no further change in the heights was detected. […]

[4] = Cloud-point measurements / LCST of HFC-4310mee threo isomers plus ionic liquids; assay type: physicochemical
From the text: Starting at ambient temperature of about 293 K, where two liquid phases existed, the temperature was lowered (20 K/h) with manual mixing in a constant temperature bath (Tamson Instruments, TV4000LT, Zoetermeer, Netherlands) until only a single phase existed. The bath temperature was calibrated with the NIST traceable SPRT mentioned previously. Achieving a single phase with the mixtures prepared using [emim][BF4] involved going to a lower temperature than was required to achieve a single phase with the mixtures prepared using [bmim][PF6] and [bmim][BF4]. In addition, the rate of decrease in temperature had to be decreased from 20 to 5 K/h with vigorous manual mixing to prevent the ionic-liquid rich phase from solidifying. Sufficient time with vigorous mixing allowed for mixtures containing 70 mole % and higher threo-H and threo-D isomers with [emim][BF4] to become a single phase at a temperature of 240 K. Once the samples were single phase the temperature was slowly raised 2 K/h until a cloud layer became visible inside the tube. The temperature was recorded for each sample when the cloud layer formed and the temperature was slowly raised until all samples had reached the cloud point.

Row | SMILES | Content in upper phase (extract) by gas chromatography [1] [vol %] | τ12^(0) ([2]; isomer (1)/[bmim][BF4] (2)) | τ12^(1)/K ([2]; isomer (1)/[bmim][BF4] (2)) [K] | τ12^(2)/K^−1 ([2]; isomer (1)/[bmim][BF4] (2)) [K^−1] | τ21^(0) ([2]; isomer (1)/[bmim][BF4] (2)) | τ21^(1)/K ([2]; isomer (1)/[bmim][BF4] (2)) [K] | τ21^(2)/K^−1 ([2]; isomer (1)/[bmim][BF4] (2)) [K^−1] | τ12^(0) ([2]; isomer (1)/[bmim][PF6] (2)) | τ12^(1)/K ([2]; isomer (1)/[bmim][PF6] (2)) [K] | τ12^(2)/K^−1 ([2]; isomer (1)/[bmim][PF6] (2)) [K^−1] | τ21^(0) ([2]; isomer (1)/[bmim][PF6] (2)) | τ21^(1)/K ([2]; isomer (1)/[bmim][PF6] (2)) [K] | τ21^(2)/K^−1 ([2]; isomer (1)/[bmim][PF6] (2)) [K^−1] | τ12^(0) ([2]; isomer (1)/[emim][BF4] (2)) | τ12^(1)/K ([2]; isomer (1)/[emim][BF4] (2)) [K] | τ12^(2)/K^−1 ([2]; isomer (1)/[emim][BF4] (2)) [K^−1] | τ21^(0) ([2]; isomer (1)/[emim][BF4] (2)) | τ21^(1)/K ([2]; isomer (1)/[emim][BF4] (2)) [K] | τ21^(2)/K^−1 ([2]; isomer (1)/[emim][BF4] (2)) [K^−1] | Solubility in the present ionic liquids compared with the erythro-D and erythro-H isomers [3] | further results
1 | F[C@H]([C@H](F)C(F)(F)C(F)(F)F)C(F)(F)F [HFC-4310mee Erythro-H, erythro-2,3-dihydrodecafluoropentanes] | 8.2 | −1.1221 | 1492.7 | 0 | 18.7323 | −3018.8 | −0.02457 | −5.2583 | 2803.2 | 0 | 2.97 | −584.1 | 0 | 25.6965 | −3500.0 | −0.03688 | 72.2927 | −10850.0 | −0.1125 | – | –
2 | [2H]C(F)(C(F)(F)F)C([2H])(F)C(F)(F)C(F)(F)F (stereo not drawn) [HFC-4310mee Threo-D] | – | – | – | – | – | – | – | – | – | – | – | – | – | – | – | – | – | – | – | more soluble | Cloud point T/K ([4]; [bmim][BF4], 59.9 ± 0.5 mol % HFC): 311 ± 1 K; Cloud point T/K ([4]; [bmim][BF4], 69.4 ± 0.5 mol % HFC): 310 ± 1 K; Cloud point T/K ([4]; [bmim][BF4], 80.1 ± 0.5 mol % HFC): 309 ± 1 K; Cloud point T/K ([4]; [bmim][BF4], 89.3 ± 0.5 mol % HFC): 310 ± 1 K; Cloud point T/K ([4]; [bmim][PF6], 40.0 ± 0.5 mol % HFC): 272 ± 1 K; Cloud point T/K ([4]; [bmim][PF6], 50.0 ± 0.5 mol % HFC): 271 ± 1 K; Cloud point T/K ([4]; [bmim][PF6], 59.7 ± 0.5 mol % HFC): 271 ± 1 K; Cloud point T/K ([4]; [bmim][PF6], 69.8 ± 0.5 mol % HFC): 267 ± 1 K; Cloud point T/K ([4]; [bmim][PF6], 79.7 ± 0.5 mol % HFC): 267 ± 1 K; Cloud point T/K ([4]; [bmim][PF6], 88.5 ± 0.5 mol % HFC): 272 ± 1 K; Cloud point T/K ([4]; [emim][BF4], 69.6 ± 0.5 mol % HFC): 252 ± 3 K; Cloud point T/K ([4]; [emim][BF4], 80.1 ± 0.5 mol % HFC): 261 ± 2 K; Cloud point T/K ([4]; [emim][BF4], 89.8 ± 0.5 mol % HFC): 273 ± 1 K
3 | F[C@H]([C@@H](F)C(F)(F)C(F)(F)F)C(F)(F)F [HFC-4310mee Threo-H, threo-2,3-dihydrodecafluoropentanes] | 91.8 | 91.1575 | −1463.8 | −0.1288 | 81.6624 | −1506.8 | −0.1092 | 145.421 | −22306.3 | −0.2229 | −37.7767 | 5492.1 | 0.06485 | 50.3746 | −7994.5 | −0.06965 | −7.2227 | 1138.3 | 0.0158 | more soluble | LCST (lower critical solution temperature) ([4]; [bmim][BF4] system, at about 75 mole %): 307-309 K; Cloud point T/K ([4]; [bmim][BF4], 50.0 ± 0.5 mol % HFC): 311 ± 1 K; Cloud point T/K ([4]; [bmim][BF4], 59.1 ± 0.5 mol % HFC): 309 ± 1 K; Cloud point T/K ([4]; [bmim][BF4], 69.8 ± 0.5 mol % HFC): 308 ± 1 K; Cloud point T/K ([4]; [bmim][BF4], 79.5 ± 0.5 mol % HFC): 307 ± 1 K; Cloud point T/K ([4]; [bmim][BF4], 91.0 ± 0.5 mol % HFC): 308 ± 1 K; LCST (lower critical solution temperature) ([4]; [bmim][PF6] system, at about 70 (threo-isomer) mole %): 265-267 K; Cloud point T/K ([4]; [bmim][PF6], 40.6 ± 0.5 mol % HFC): 270 ± 1 K; Cloud point T/K ([4]; [bmim][PF6], 50.8 ± 0.5 mol % HFC): 269 ± 1 K; Cloud point T/K ([4]; [bmim][PF6], 60.4 ± 0.5 mol % HFC): 268 ± 1 K; Cloud point T/K ([4]; [bmim][PF6], 69.7 ± 0.5 mol % HFC): 265 ± 1 K; Cloud point T/K ([4]; [bmim][PF6], 80.0 ± 0.5 mol % HFC): 264 ± 1 K; Cloud point T/K ([4]; [bmim][PF6], 90.0 ± 0.5 mol % HFC): 276 ± 1 K; LCST (lower critical solution temperature) ([4]; [emim][BF4] system, at near 50 mole %): about 250 K; Cloud point T/K ([4]; [emim][BF4], 69.8 ± 0.5 mol % HFC): 250 ± 3 K; Cloud point T/K ([4]; [emim][BF4], 80.0 ± 0.5 mol % HFC): 260 ± 2 K; Cloud point T/K ([4]; [emim][BF4], 90.1 ± 0.5 mol % HFC): 268 ± 1 K
